“Also recorded” adds a separate entry of the source. A value given as a limit tells only on which side of the number the result lay.

One assay has as its system HMEC-1 or HUVE cells. The experiment in a line: Labelling of endothelial cell surface proteins with GSAO-B. Format: cell-based, human. The conditions noted are these: GSAO-B 100 μM, 30 minutes. How it is done:
FIG. 16. Identification of endothelial cell surface proteins that contain closely spaced dithiol(s). A The surface of HMEC-1 or HUVE cells (2×10^6 cells in 0.4 mL) was labelled with GSAO-B (100 μM) for 30 minutes at room temperature in the absence (lanes 1 and 3) or presence of DMP (400 μM) (lane 2). The endothelial cells were lysed and the lysate from both incubations was resolved on 4–15% SDS-PAGE, transferred to PVDF membrane, and blotted with streptavidin peroxidase to detect the GSAO-B label. The results represent labelling of 3×10^4 HMEC-1 (lanes 1 and 2) of HUVE cells (lane 3). The positions of Mr markers are shown at left. B Densitometry profile of the surface labelled proteins (lanes 1 and 3). The apparent Mr's of the individual proteins are indicated.
Human umbilical vein endothelial cells (HUVEC) (Wall et al., 1978) and the human dermal microvascular endothelial cell line, HMEC-1 (Ades et al., 1992), were harvested and cultured as indicated. […] Bound proteins were washed 5 times with 50 mM Tris/HCl, pH 8 buffer containing 0.15 M NaCl and 0.05% Triton X-100, resolved on SDS-PAGE, transferred to PVDF membrane, and the GSAO-B-labelled proteins detected by Western blot.

The next assay addresses bovine serum albumin (Bos taurus, UniProt P02769). The experiment in a line: Incorporation of GSAO-B into purified protein, streptavidin-peroxidase blot (negative control protein). Format: binding. The conditions noted are these: GSAO-B 100 μM, protein 5 μM, 30 minutes. How it is done: (§1) FIG. 14. Interaction of GSAO-B with PDI and thioredoxin. A Structure of GSAO-B. B Purified human recombinant PDI (5 μM), human recombinant thioredoxin (5 μM) or bovine serum albumin (5 μM) was incubated with dithiothreitol (10 μM) for 60 minutes at room temperature to ensure that the active site disulfide(s) of PDI and thioredoxin were in the reduced dithiol form. GSAO-B (100 μM) or GSAO-B and DMP (400 μM) was then added and the reactions incubated for 30 minutes at room temperature. The labelled PDI (lanes 1 and 2), thioredoxin (lanes 3 and 4) and albumin (lane 5) (75 pmoles) was resolved on […] SDS-PAGE, transferred to PVDF membrane, and blotted with streptavidin-peroxidase to detect the GSAO-B label. The positions of Mr markers are shown at left.
Human recombinant PDI and thioredoxin bound GSAO-B (FIG. 14). Recombinant human protein disulfide isomerase (PDI) was produced in E. coli and purified according to Jiang et al. (1999). […] Proteins were detected by Western blot using an anti-PDI murine monoclonal antibody (Jiang et al., 1999) (used at 2 μg per mL). […] Chemiluminescence films were analysed using a GS-700 Imaging Densitometer and Multi-Analyst software (Bio-Rad, Hercules, Calif.).

The target in a further assay is T1, Thioredoxin (Homo sapiens, UniProt P10599).
T1 construct: purchased American Diagnostica, Greenwich, Conn; host or cells: E. coli
T1 sequence (P10599 1-105): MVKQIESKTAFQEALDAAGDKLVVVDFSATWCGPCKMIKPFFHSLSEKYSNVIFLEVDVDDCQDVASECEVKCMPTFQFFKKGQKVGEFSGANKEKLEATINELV
The experiment in a line: Incorporation of GSAO-B into purified protein, streptavidin-peroxidase blot. The conditions noted are these: GSAO-B 100 μM, protein 5 μM, 30 minutes. Format: binding. How it is done:
as §1
(§2) Human recombinant PDI and thioredoxin bound GSAO-B (FIG. 14). Recombinant human protein disulfide isomerase (PDI) was produced in E. coli and purified according to Jiang et al. (1999). In the experiment, purified PDI, thioredoxin or albumin as negative control were incubated with a 2-fold molar excess of dithiothreitol for 60 minutes to ensure that the active site disulfides of PDI and thioredoxin were in the reduced dithiol state. The proteins were then incubated with GSAOB or GSAO-B and a 4-fold molar excess of DMP for 30 minutes. Equivalent moles of the labelled proteins were resolved on SDS-PAGE, transferred to PVDF membrane, and blotted with streptavidin-peroxidase to detect the GSAO-B label. Samples were resolved on 4–15% SDS-PAGE under non-reducing conditions (Laemmli, 1970) and transferred to PVDF membrane. Proteins were detected by Western blot using an anti-PDI murine monoclonal antibody (Jiang et al., 1999) (used at 2 μg per mL). Rabbit anti-mouse horseradish peroxidase conjugated antibodies (Dako Corporation, Carpinteria, Calif.) were used at 1:2000 dilution. GSAO-B-labelled proteins were blotted with streptavidin peroxidase (Amersham, Sydney, NSW) used at 1:1000 dilution. […] Chemiluminescence films were analysed using a GS-700 Imaging Densitometer and Multi-Analyst software (Bio-Rad, Hercules, Calif.).

A further assay has as its target T2, Human recombinant PDI (Homo sapiens, UniProt P07237).
T2 construct: made in house; host or cells: E. coli
The assay is described as above. Format: binding. Here is the method: as §1, §2

Assay [1] deals with PDI on the endothelial cell surface. The experiment in a line: GSAO-B labelling of cell surface PDI, streptavidin-agarose pull-down and anti-PDI blot. Type of assay: cell-based, bovine. The conditions noted are these: GSAO-B 100 μM, absence of DMP. How it is done:
FIG. 17. PDI was one of the GSAO-B labelled proteins on the endothelial cell surface. HUVEC (5×10^6 cells in 0.75 mL) were labelled with GSAO-B (100 μM) for 30 minutes at 37° C. in the absence (lanes 1) or presence of DMP (400 μM) (lane 2). The cells were lysed and incubated with streptavidin-agarose beads to collect the biotin-labelled proteins. The labelled proteins were resolved on 4–15% SDS-PAGE, transferred to PVDF membrane, and blotted with anti-PDI monoclonal antibodies. The results represent labelling of 5×10^6 endothelial cells. The positions of Mr markers are shown at left.
BAE cells were labelled with GSAO-B in the absence or presence of DMP, lysed and incubated with streptavidin-agarose beads to collect the biotin-labelled proteins. The labelled proteins were eluted from the beads, resolved on SDS-PAGE, transferred to PVDF membrane, and blotted with anti-PDI polyclonal antibodies.

A further assay has as its system BAE cells. The experiment in a line: cells. The conditions noted are these: Bos taurus, Endothelial cell, 24 h, read-out: IC50 for viability.

T2 sequence (P07237 18-508): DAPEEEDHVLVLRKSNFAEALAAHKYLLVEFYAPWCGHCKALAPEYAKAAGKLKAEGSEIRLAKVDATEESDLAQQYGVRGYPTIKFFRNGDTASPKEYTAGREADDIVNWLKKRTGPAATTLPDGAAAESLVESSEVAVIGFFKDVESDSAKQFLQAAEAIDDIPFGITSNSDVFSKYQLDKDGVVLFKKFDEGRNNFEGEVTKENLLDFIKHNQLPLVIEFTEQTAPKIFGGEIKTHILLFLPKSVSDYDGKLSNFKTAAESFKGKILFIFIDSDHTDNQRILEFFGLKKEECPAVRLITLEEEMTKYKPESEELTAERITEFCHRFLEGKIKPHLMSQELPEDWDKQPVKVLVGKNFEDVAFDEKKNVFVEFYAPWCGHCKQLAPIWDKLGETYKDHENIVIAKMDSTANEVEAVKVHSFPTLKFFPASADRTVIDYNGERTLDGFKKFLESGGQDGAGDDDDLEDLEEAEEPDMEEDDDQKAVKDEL
Chain of bovine serum albumin (P02769 25-607): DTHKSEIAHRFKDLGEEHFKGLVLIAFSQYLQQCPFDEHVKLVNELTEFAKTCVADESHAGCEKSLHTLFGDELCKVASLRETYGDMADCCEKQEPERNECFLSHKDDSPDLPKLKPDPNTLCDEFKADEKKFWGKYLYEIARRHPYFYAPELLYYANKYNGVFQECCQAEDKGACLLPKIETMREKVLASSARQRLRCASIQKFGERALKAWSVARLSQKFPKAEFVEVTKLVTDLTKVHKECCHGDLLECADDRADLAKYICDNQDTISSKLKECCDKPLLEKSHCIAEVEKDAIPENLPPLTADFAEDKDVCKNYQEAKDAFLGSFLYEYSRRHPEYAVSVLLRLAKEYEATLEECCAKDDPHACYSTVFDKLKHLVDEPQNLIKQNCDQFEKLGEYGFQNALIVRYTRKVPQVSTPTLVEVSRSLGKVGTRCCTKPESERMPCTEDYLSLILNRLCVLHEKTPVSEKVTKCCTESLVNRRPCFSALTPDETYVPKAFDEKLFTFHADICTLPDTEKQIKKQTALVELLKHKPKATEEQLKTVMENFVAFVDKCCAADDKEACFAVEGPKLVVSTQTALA

For “4-(N-(S-(N-(6-(N-(6-(N-(biotinoyl)-amino)hexanoyl)amino)hexanoyl)glutathiony)acetyl)amino)phenylarsenoxide [GSAO-B]”, the “proteins on the endothelial cell surface that incorporated GSAO-B” value with HMEC-1 or HUVE cells is given as “approximately ten proteins”. Moreover, the “incorporation of GSAO-B” value on bovine serum albumin is on record as “albumin did not”; at Thioredoxin, “bound GSAO-B; also recorded: incorporated GSAO-B”; on Human recombinant PDI (GSAO-B 100 μM, protein 5 μM, 30 minutes), “bound GSAO-B; also recorded: incorporated GSAO-B”. Besides, the “density of labelling of PDI relative to thioredoxin” value on Human recombinant PDI (equivalent moles of labelled proteins) was “approximately twice”. Moreover, in assay [1], the “labelling of cell surface PDI by GSAO-B” value is on record as “PDI was one of the proteins on the endothelial cell surface that incorporated GSAO-B”.

In general, IC50 refers to the concentration needed to halve the response being measured. In the case of `O=[As]c1ccc(NC(=O)CSCCC(=O)N[C@@H](CC(=O)O)C(=O)O)cc1` (stereo partly drawn) [AspAO, N-(3-(4-arsenoso-phenylcarbamoylmethylthio)propanoyl)-L-aspartic acid], the IC50 with BAE cells is less than 1 µM.

As to `O=[As]c1ccc(NC(=O)CSCCC(=O)N[C@@H](CS(=O)(=O)O)C(=O)O)cc1` (stereo partly drawn) [Cys*AO, N-(3-(4-arsenosophenylcarbamoylmethylthio)propanoyl)-L-cysteic acid], the IC50 in the assay on BAE cells was less than 10 µM.

In the case of `O=[As]c1ccc(NC(=O)CSCCC(=O)N[C@H]2C(O)O[C@H](CO)[C@@H](O)[C@@H]2O)cc1` (stereo partly drawn) [GlcAO, N-(3-(4-arsenosophenylcarbamoylmethylthio)propanoyl)-D-glucosamine], in the assay with BAE cells, the IC50 is less than 1 µM.

As to `O=[As]c1ccc(NC(=O)CSCCC(=O)N[C@@H](CCC(=O)O)C(=O)O)cc1` (stereo partly drawn) [GluAO, N-(3-(4-arsenosophenylcarbamoylmethylthio)propanoyl)-L-glutamic acid], the IC50 with BAE cells was less than 10 µM.

Values taken from US7186695B2 (priority 2001, dated 2007).
